Article PMC11530130, “Peripherally restricted PICK1 inhibitor mPD5 ameliorates pain behaviors in murine inflammatory and neuropathic pain models” (JCI Insight, 2024)
“And” between values parts separate entries of the source, which are not always exact repeats. Identical values can stand only once.

Assays:
[1] = system: mice, spared nerve injury (SNI) model; assay: SNI model, von Frey, repeated s.c. administration on 2 consecutive days; assay type: in vivo, mouse; set-up: von Frey threshold, Fig 7A, individual mice: unit not given here
Description: Repeated and sustained administration of mPD5 in the SNI model.
For the experiment with repeated administration of mPD5 (Figure 7A), male C57BL/6J (Janvier, France) mice underwent surgery leading to partial nerve injury, by cutting the peroneal and tibial nerves, producing hypersensitivity of the remaining sural nerve (SNI) as described in the “Induction of neuropathic pain (SNI model).”-section. On day 21 after surgery, hyperalgesia was confirmed by using von Frey filaments to induce mechanically evoked hypersensitivity and measure paw withdrawal threshold of the animals as described in the “Mechanically-evoked pain (von Frey).”-section. On the same day, mice were injected s.c. with 2, 10, or 50 μmol/kg mPD5 (10 μL/g) and evoked pain was tested again with the use of von Frey filaments at 1 and 5 hours after injection. 24 hours after the first injection, mice were injected s.c. with 2, 10, or 50 μmol/kg mPD5 (10 μL/g) again and evoked pain was tested with the use of von Frey filaments at 1, 5, and 24 hours after the second injection. […]

[2] = system: mice, CFA model of inflammatory pain; assay: CFA model, elevated plus maze; assay type: in vivo, mouse
[3] = Flow-induced dispersion analysis (FIDA), critical micelle concentration; assay type: physicochemical
Description: Supplemental Figure S2. FIDA analysis of mPD5. (A) Molecular properties of mPD5.
(B) Taylorgrams for different concentrations of mPD5 using an uncoated capillary.
(C) Taylorgrams for different concentrations of mPD5 using a Poly-L-ornithine capillary.
(D) Taylorgrams for different concentrations of mPD5 using an HS-coated capillary.
(E) Graphical representation of mPD5 absorption using different coating strategies (B-D).
(F) Binding isotherm of mPD5 combining optimal coatings for different concentrations results in a CMC of 12 µM. […]
FIDA was carried out using a fluorescently labelled (AF488-NHS) mPD5 analogue, and fluorescence was recorded at 488 nm using mPD5-AF488 (25% labelling efficiency) as a tracer (100 nM), using the standard protocol recommended by the manufacturer, in short, mPD5 and mPD5-AF488 (25% labelling efficiency) was loaded to the FIDA1 instrument, and peptide sample was injected into the capillary followed by a buffer injection. The diffusion of the peptide could then be observed using 488 nm fluorescence, and the hydrodynamic radius was calculated using the FIDA software 2.0 using a single Gaussian distribution fit, at 75% and curve smoothing. […]
Concentration series of mPD5 ranging from 0.18 mg/mL to 9.37 mg/mL was prepared in buffer containing 50 mM Tris-HCl (pH 7.4) and 125 mM NaCl. Samples were measured at the P12 SAXS Beamline, PetraIII, DESY, Hamburg Germany (2). […]

What does the source list for CCCCCCCCCCCCCC(=O)N(CCOCCOCCC(=O)N[C@@H](Cc1c[nH]cn1)C(=O)N[C@@H](Cc1c[nH]c2ccccc12)C(=O)N[C@@H](CC(C)C)C(=O)N[C@@H](CCCCN)C(=O)N[C@H](C(=O)O)C(C)C)CCOCCOCCC(=O)N[C@@H](Cc1c[nH]cn1)C(=O)N[C@@H](Cc1c[nH]c2ccccc12)C(=O)N[C@@H](CC(C)C)C(=O)N[C@@H](CCCCN)C(=O)N[C@H](C(=O)O)C(C)C [mPD5, myristoyl-NPEG4-(HWLKV)2]?
von Frey threshold, contralateral paw, Fig 7A, individual mice ([1]; A_contra, hr 5 day2): 1.4 and 1 (3×); von Frey threshold, contralateral paw, Fig 7A, individual mice ([1]; A_contra, hr23): 1 (3×) and 1.4 (4×) and 2; von Frey threshold, contralateral paw, Fig 7A, individual mice ([1]; A_contra, hr1 day 1): 1.4 (6×) and 1 and 2; von Frey threshold, contralateral paw, Fig 7A, individual mice ([1]; A_contra, hr 1 day 2): 1 (5×) and 1.4 (2×) and 2; von Frey threshold, contralateral paw, Fig 7A, individual mice ([1]; A_contra, hr 5 day 1): 1.4 (6×) and 2 and 1; von Frey threshold, contralateral paw, Fig 7A, individual mice ([1]; B_contra, hr23): 1.4 (4×) and 1 (3×) and 2; von Frey threshold, contralateral paw, Fig 7A, individual mice ([1]; B_contra, hr1 day 1): 1.4 (5×) and 1 (3×); von Frey threshold, contralateral paw, Fig 7A, individual mice ([1]; B_contra, hr 1 day 2): 1.4 (5×) and 1 (3×); von Frey threshold, contralateral paw, Fig 7A, individual mice ([1]; B_contra, hr 5 day 1): 1.4 and 1 (2×) and 2 (5×); von Frey threshold, contralateral paw, Fig 7A, individual mice ([1]; C_comtra, hr23): 2 and 1.4 (5×) and 1 (2×); von Frey threshold, contralateral paw, Fig 7A, individual mice ([1]; C_comtra, hr1 day 1): 3 and 2 (2×) and 1 (2×) and 1.4 (3×); von Frey threshold, contralateral paw, Fig 7A, individual mice ([1]; C_comtra, hr 1 day 2): 1 (2×) and 1.4 (4×) and 2 (2×); von Frey threshold, contralateral paw, Fig 7A, individual mice ([1]; C_comtra, hr 5 day 1): 2 and 1 (4×) and 1.4 (3×); relief of mechanical hypersensitivity ([1]; SNI 3 weeks after surgery, first day, s.c. 50 μmol/kg only, 5 hours): significant effect at 5 hours; relief of mechanical hypersensitivity ([1]; SNI 3 weeks after surgery, first day, s.c. 2, 10, 50 μmol/kg (all concentrations), 1 hour): significant effects at 1 hour; relief of mechanical hypersensitivity ([1]; SNI, next day (second injection), only 10 and 50 μmol/kg, 1 and 5 hours after administration): significant pain relief; development of tolerance ([1]; SNI, s.c. 2, 10, 50 μmol/kg on 2 consecutive days): do not indicate immediate development of tolerance; von Frey threshold, Fig 7A, individual mice ([1]; group 2, hr 5 day2): 0.07 and 0.16 (2×); von Frey threshold, Fig 7A, individual mice ([1]; group 2, hr23): 0.07 (5×) and 0.16 (3×); von Frey threshold, Fig 7A, individual mice ([1]; group 2, hr1 day 1): 0.16 and 1 (2×) and 0.6 (2×) and 1.4 and 0.4 (2×); von Frey threshold, Fig 7A, individual mice ([1]; group 2, hr 1 day 2): 0.16 (3×) and 1 and 0.6 (3×) and 0.4; von Frey threshold, Fig 7A, individual mice ([1]; group 2, hr 5 day 1): 0.07 (2×) and 0.4 (3×) and 0.16 (2×) and 0.6; von Frey threshold, Fig 7A, individual mice ([1]; group 10, hr 5 day2): 1; von Frey threshold, Fig 7A, individual mice ([1]; group 10, hr23): 0.16 (3×) and 0.4 (3×) and 0.07 (2×); von Frey threshold, Fig 7A, individual mice ([1]; group 10, hr1 day 1): 1 (3×) and 2 (2×) and 0.4 and 1.4 and 0.6; von Frey threshold, Fig 7A, individual mice ([1]; group 10, hr 1 day 2): 1 (3×) and 2 (2×) and 0.4 (2×) and 1.4; von Frey threshold, Fig 7A, individual mice ([1]; group 10, hr 5 day 1): 0.16 and 2 and 1 (2×) and 0.07 and 0.4 (3×); von Frey threshold, Fig 7A, individual mice ([1]; group 50, hr23): 0.16 (5×) and 0.07 (3×); von Frey threshold, Fig 7A, individual mice ([1]; group 50, hr1 day 1): 1.4 (5×) and 1 and 0.6 and 0.16; von Frey threshold, Fig 7A, individual mice ([1]; group 50, hr 1 day 2): 1 (4×) and 0.6 and 1.4 (2×) and 0.4; von Frey threshold, Fig 7A, individual mice ([1]; group 50, hr 5 day 1): 0.6 (3×) and 1 and 0.4 (2×) and 0.16 (2×); time spent in open arms relative to sham, individual mice ([2]; 1 hour after s.c. 10 μmol/kg): 105.738 and 52.6613 and 140.768 and 68.9703 and 55.3027 and 160.227 and 143.859 and 0 and 156.14 and 28.0701 and 63.1578; time spent in the open arms of the elevated plus maze ([2]; s.c. 10 μmol/kg): no longer significantly different from the naive mice; critical micelle concentration (CMC) ([3]; FIDA binding isotherm, optimal coatings combined): 12 µM; hydrodynamic radius (RH) ([3]; FIDA, micellar mPD5): ≈ 30 Å
